Results on two compounds are retold here after ChEMBL document CHEMBL5360653, “Marine Alkaloid Lepadins E and H Induce Ferroptosis for Cancer Chemotherapy” (J Med Chem, 2023).

Series [1] deals with HeLa. As to the kind of experiment: Induction of apoptosis in human HeLa cells assessed as late apoptotic cells incubated at 6 uM for 24 hrs measured by annexin V-PI staining based FITC analysis (reference value: 1.81%). It is filed as functional.
The subject of series [2] is HeLa. As to the kind of experiment: Induction of apoptosis in human HeLa cells assessed as early apoptotic cells incubated at 8 uM for 24 hrs measured by annexin V-PI staining based FITC analysis (reference value: 3.59%). It is filed as functional.
A short description of series [3]: Toxicity in immunocompetent C57BL/6J mouse allografted with B16-F10 cells assessed as change in body weight administered at 30 mg/kg, ip daily for 14 days measured every 3 days. It is filed as organism-based. The conditions noted are these: in vivo, 336 h, time 14 day.
Series [4] can be described thus: Toxicity in immunocompetent C57BL/6J mouse allografted with B16-F10 cells assessed as change of organ index in lungs administered at 30 mg/kg, ip daily for 14 days by hematoxylin and eosin staining analysis. It is filed as organism-based. Particulars: in vivo, 336 h, time 14 day.
A short description of series [5]: Toxicity in immunocompetent C57BL/6J mouse allografted with B16-F10 cells assessed as change of organ index in kidney administered at 30 mg/kg, ip daily for 14 days by hematoxylin and eosin staining analysis. It is filed as organism-based. Particulars: in vivo, 336 h, time 14 day.
A short description of series [6]: Toxicity in immunocompetent C57BL/6J mouse allografted with B16-F10 cells assessed as tissue damage in lungs administered at 30 mg/kg, ip daily for 14 days by hematoxylin and eosin staining analysis. Particulars: in vivo, 336 h, time 14 day. It is filed as organism-based.
The subject of series [7] is HeLa. As to the kind of experiment: Induction of ferroptosis in human HeLa cells assessed as increase in density of mitochondrial membrane measured at 6 uM for 24 hrs by transmission electron microscopic analysis. It counts as functional, cell-based.
Series [8] is described as follows: Toxicity in immunocompetent C57BL/6J mouse allografted with B16-F10 cells assessed as tissue damage in liver administered at 30 mg/kg, ip daily for 14 days by hematoxylin and eosin staining analysis. It is filed as organism-based. The conditions noted are these: in vivo, 336 h, time 14 day.
Series [9] deals with HeLa. As to the kind of experiment: Induction of apoptosis in human HeLa cells assessed as late apoptotic cells preincubated with PFTalpha followed by compound addition at 10 uM for 24 hrs measured by annexin V-PI staining based FITC analysis (reference value: 2.3%). It counts as functional.
The nature of series [10]: Toxicity in immunocompetent C57BL/6J mouse allografted with B16-F10 cells assessed as tissue damage in thymus administered at 30 mg/kg, ip daily for 14 days by hematoxylin and eosin staining analysis. It is filed as organism-based. Particulars: in vivo, 336 h, time 14 day.
In series [11] the test system is B16-F10. As to the kind of experiment: Antitumor activity against mouse B16-F10 cells allografted in immunocompetent C57BL/6J mouse assessed as reduction of tumor growth administered at 30 mg/kg, ip daily for 14 days (reference value: 1500 mm^3). It counts as functional. Particulars: time 14 day.
Series [12] has as its system HeLa. As to the kind of experiment: Induction of ROS generation in human HeLa cells assessed as increase in ROS level at 20 uM incubated for 0.5 hrs (reference value: 39.6%). It counts as functional.
In series [13] the test system is HeLa. Description: Induction of apoptosis in human HeLa cells assessed as early apoptotic cells preincubated with PFTalpha followed by compound addition at 10 uM for 24 hrs measured by annexin V-PI staining based FITC analysis (reference value: 2.72%). It counts as functional.
The nature of series [14]: Toxicity in immunocompetent C57BL/6J mouse allografted with B16-F10 cells assessed as tissue damage in heart administered at 30 mg/kg, ip daily for 14 days by hematoxylin and eosin staining analysis. It counts as organism-based. Particulars: in vivo, 336 h, time 14 day.
Series [15] has as its system HeLa. Description: Induction of ROS generation in human HeLa cells assessed as increase in ROS level at 6 to 10 uM. It counts as functional, cell-based. Particulars: dose 6-10 µM.
Series [16] relates to B16-F10. As to the kind of experiment: Induction of ferroptosis in mouse B16-F10 cells assessed as cell viability in presence of liproxstatin-1 at 10 uM. It is filed as functional, cell-based.
In series [17] the test system is HeLa. Description: Induction of apoptosis in human HeLa cells assessed as early apoptotic cells incubated at 6 uM for 24 hrs measured by annexin V-PI staining based FITC analysis (reference value: 3.59%). It is filed as functional.
Series [18] relates to HeLa. Description: Induction of apoptosis in human HeLa cells assessed as late apoptotic cells incubated at 10 uM for 24 hrs measured by annexin V-PI staining based FITC analysis (reference value: 1.81%). It is filed as functional.
Series [19] deals with HeLa. As to the kind of experiment: Induction of ROS generation in human HeLa cells assessed as increase in ROS level at 10 uM incubated for 1 hrs (reference value: 39.6%). It counts as functional.
Series [20] is described as follows: Toxicity in immunocompetent C57BL/6J mouse allografted with B16-F10 cells assessed as change of organ index in heart administered at 30 mg/kg, ip daily for 14 days by hematoxylin and eosin staining analysis. It is filed as organism-based. Particulars: in vivo, 336 h, time 14 day.
Series [21] relates to HeLa. Description: Induction of apoptosis in human HeLa cells assessed as necrotic cells incubated at 8 uM for 24 hrs measured by annexin V-PI staining based FITC analysis (reference value: 0.70%). It counts as functional.
The subject of series [22] is HeLa. Description: Induction of ferroptosis in human HeLa cells assessed as downregulation of GPX4 level measured at 4 to 10 uM for 24 hrs by Western blotting analysis. Particulars: dose 4-10 µM. It is filed as functional, cell-based. On the technique in general: Immunoblotting shows a protein as a band on a membrane.
The subject of series [23] is HeLa. As to the kind of experiment: Induction of apoptosis in human HeLa cells assessed as early apoptotic cells incubated at 10 uM for 24 hrs measured by annexin V-PI staining based FITC analysis (reference value: 3.94%). It is filed as functional.
In series [24] the test system is HeLa. As to the kind of experiment: Induction of apoptosis in human HeLa cells assessed as necrotic cells incubated at 4 uM for 24 hrs measured by annexin V-PI staining based FITC analysis (reference value: 0.58%). It is filed as functional.
For series [25], the system named is HeLa. As to the kind of experiment: Induction of apoptosis in human HeLa cells assessed as early apoptotic cells preincubated with PFTalpha followed by compound addition at 10 uM for 24 hrs measured by annexin V-PI staining based FITC analysis (reference value: 3.28%). It counts as functional.
The test system of series [26] is HeLa. As to the kind of experiment: Induction of apoptosis in human HeLa cells assessed as late apoptotic cells preincubated with PFTalpha followed by compound addition at 10 uM for 24 hrs measured by annexin V-PI staining based FITC analysis (reference value: 3.45%). It is filed as functional.
Series [27] relates to HeLa. As to the kind of experiment: Induction of apoptosis in human HeLa cells assessed as viable cells incubated at 10 uM for 24 hrs measured by annexin V-PI staining based FITC analysis (reference value: 91.6%). It counts as functional. Particulars: read-out: Activity.
For series [28], the system named is HeLa. Description: Induction of apoptosis in human HeLa cells assessed as necrotic cells preincubated with PFTalpha followed by compound addition at 10 uM for 24 hrs measured by annexin V-PI staining based FITC analysis (reference value: 1.6%). It is filed as functional.
For series [29], the system named is HeLa. As to the kind of experiment: Induction of apoptosis in human HeLa cells assessed as necrotic cells incubated at 10 uM for 24 hrs measured by annexin V-PI staining based FITC analysis (reference value: 0.58%). It is filed as functional.
In series [30] the test system is HeLa. Description: Induction of ferroptosis in human HeLa cells assessed as decrease in cellular GSH level measured at 6 uM for 24 hrs by transmission electron microscopic analysis. It is filed as functional, cell-based.
Series [31] concerns HeLa. Description: Induction of apoptosis in human HeLa cells assessed as early apoptotic cells incubated at 8 uM for 24 hrs measured by annexin V-PI staining based FITC analysis (reference value: 3.94%). It counts as functional.
Series [32] deals with HeLa. As to the kind of experiment: Induction of apoptosis in human HeLa cells assessed as necrotic cells incubated at 6 uM for 24 hrs measured by annexin V-PI staining based FITC analysis (reference value: 0.58%). It is filed as functional.
The test system of series [33] is HeLa. Description: Induction of apoptosis in human HeLa cells assessed as late apoptotic cells incubated at 8 uM for 24 hrs measured by annexin V-PI staining based FITC analysis (reference value: 1.54%). It counts as functional.

The structures appear in SMILES notation. The source made the active and inactive calls. No cut-off for these calls is given here.

With `CCC/C=C/C=C/C(=O)O[C@@H]1C[C@H]2[C@@H](CCCC[C@H](O)CCC)CCC[C@H]2N[C@H]1C`, the Activity in the series on HeLa [1] is listed as 3.94%; with HeLa [2] it was 21.1%; in series [3], “Non-Toxic”; in series [4] it was “Non-Toxic”; in series [5] it was “Non-Toxic”; in series [6] it was “Non-Toxic”. The Activity entry in series [8] is on record as “Non-Toxic”; with HeLa [9] it was 19.5%; in series [10], “Non-Toxic”; in the series on B16-F10 [11], less than 500 mm3; in the series with HeLa [12], 84.4%; with HeLa [13], 30.5%. The Activity entry is “Non-Toxic” in series [14]; 6.71% in the series with HeLa [17]; 5.53% with HeLa [18]; 81.5% in the series with HeLa [19]; “Non-Toxic” in [20]; 0.5% in the series with HeLa [21]. Also, the outcome with HeLa [7], in the series on HeLa [15], in the series with B16-F10 [16] and in the series on HeLa [22] was Active.

As to `CCCCC/C=C/C(=O)O[C@@H]1C[C@H]2[C@@H](CCCC[C@H](O)CCC)CCC[C@H]2N[C@H]1C`, the Activity with HeLa [23] is 22.7%; in the series on HeLa [24] it was 0.53%; in the series with HeLa [25], 31.9%; in the series on HeLa [26] it was 26.9%; with HeLa [28], 4.34%; in the series with HeLa [29], 4.68%. Further, the values for the Activity in the series with HeLa [31], in the series with HeLa [32] and in the series on HeLa [33] were 20.9%, 0.85% and 23.7%, respectively. In the series with HeLa [27], the viability at 10 µM worked out at 28%. Moreover, the outcome with HeLa [30] was Active.
